How the values were obtained:
HepG2 cells = assay: TPC assay (total protein content), 72 h exposure; type: cell-based, human; details: mean ± SD, n = 3
Protocol: The human hepatoma (HepG2) and colorectal adenocarcinoma (Caco-2) cells were purchased from the American Type Culture Collection: ATCC HB-8065 and ATCC HTB-37, respectively. These cells were cultured in Minimum Essential Medium Eagle (MEME) (ATCC). The murine fibroblasts cell line (Balb/c 3T3 clone A31) (gift from the Department of Swine Diseases of the National Veterinary Research Institute in Pulawy) was cultured in Dulbecco’s Modified Eagle Medium (DMEM) (ATCC). The media were supplemented with 10% BCS (Balb/c 3T3), 10% FBS (HepG2), 20% FBS (Caco-2), 1% L-glutamine, 1% antibiotic solution. The cells were maintained in 75 cm^2 cell culture flasks (NUNC) in a humidified incubator at 37 °C in an atmosphere of 5% CO2. The medium was refreshed every two or three days, and the cells were trypsinized by 0.25% trypsin–0.02% EDTA after reaching 70–80% confluence. Single cell suspensions were prepared and adjusted to a density of 2 × 10^5 cell/mL^−1 (HepG2), 1 × 10^5 cell/mL^−1 (Caco-2) and 5 × 10^4 cell/mL^−1 (Balb/c 3T3). The cell suspension was transferred to 96-well plates (100 µL/well) and incubated for 24 h before the exposure to the studied compounds. Stock solutions of ligands and metal complexes were prepared in sterile water and diluted with culture medium to obtain a concentration range from 0.1 to 10 µM. The final concentration of sterile water was 0.1% in the medium. […] As a negative control, cultured cells were grown in the absence of studied compounds. Each concentration was tested in six replicates in three independent experiments. Cytotoxicity was assessed after 72 h of exposure of the cells to compounds. The medium was not changed during the incubation time.
This assay is based upon staining the total cellular protein (proliferation). After the incubation, the medium containing the drug was removed, and 100 µL Coomassie brilliant blue R-250 dye was added to each well. The plate was shaken for 10 min. Then, the stain was removed and the cells were rinsed twice with 100 µL of washing solution (glacial acetic acid/ethanol/water, 5:10:85, v:v:v). After that, 100 µL of the desorbing solution (1 M potassium acetate) was added, and plates were shaken again for 10 min. The absorbance was measured at 595 nm in a microplate reader Synergy HTX multi-mode reader (BioTek® Instruments Inc., Winooski, VT, USA) using a blank as a reference. Cytotoxicity was expressed as a percentage of the negative control.
The study was performed in three independent experiments. The obtained results are presented as mean values ± SD (standard deviation). The assessment of the cytotoxicity data used a one-way analysis of variance (ANOVA) followed by Dunnett’s post hoc test, which was applied to determine significance relative to the negative control.

[1] = system: S. epidermidis ATCC 12228; assay: micro-dilution broth method (MIC, MBC); type: cell-based, Staphylococcus epidermidis
M. luteus ATCC 10240 = assay: micro-dilution broth method (MIC, MBC); type: cell-based, Micrococcus luteus
A. israeli ATCC 10049 = assay: micro-dilution broth method (MIC, MBC); type: cell-based, Actinomyces israelii
C. jejunii ATCC 33291 = assay: micro-dilution broth method (MIC, MBC); type: cell-based, Campylobacter jejunii
B. fragilis ATCC 10240 = assay: micro-dilution broth method (MIC, MBC); type: cell-based, Bacteroides fragilis
P. intermedia ATCC 25611 = assay: micro-dilution broth method (MIC, MBC); type: cell-based
V. parvula ATCC 10790 = assay: micro-dilution broth method (MIC, MBC); type: cell-based, Veillonella parvula
[2] = light stability in normal daylight, visual assessment; type: physicochemical; details: for time to complete darkening: on both groundworks (paper, tissue paper)
[3] = S. epidermidis ATCC 12228, value in brackets
[4] = M. luteus ATCC 10240, value in brackets
[5] = A. israeli ATCC 10049, value in brackets
[6] = C. jejunii ATCC 33291, value in brackets
[7] = B. fragilis ATCC 10240, value in brackets
[8] = P. intermedia ATCC 25611, value in brackets
[9] = V. parvula ATCC 10790, value in brackets
[10] = 1.25 µmol applied on tissue paper

## O=[N+]([O-])[O-].[Ag+] [AgNO3, Silver nitrate]
HepG2 cells
  IC50: > 10 µM
[1]; S. epidermidis ATCC 12228
  MBC: 15.6 mg/L
  MIC: 3.9 mg/L
[1]; [3]
  MBC: 0.09 µM/mL
  MIC: 0.025 µM/mL
M. luteus ATCC 10240; M. luteus ATCC 10240
  MBC: 31.3 mg/L
  MIC: 3.9 mg/L
M. luteus ATCC 10240; [4]
  MBC: 0.185 µM/mL
  MIC: 0.025 µM/mL
A. israeli ATCC 10049; A. israeli ATCC 10049
  MBC: 0.49 mg/L
  MIC: 0.49 mg/L
A. israeli ATCC 10049; [5]
  MBC: 0.003 µM/mL
  MIC: 0.003 µM/mL
C. jejunii ATCC 33291; C. jejunii ATCC 33291
  MBC: 125 mg/L
  MIC: 62.5 mg/L
C. jejunii ATCC 33291; [6]
  MBC: 0.74 µM/mL
  MIC: 0.37 µM/mL
B. fragilis ATCC 10240; B. fragilis ATCC 10240
  MBC: 62.5 mg/L
  MIC: 15.6 mg/L
B. fragilis ATCC 10240; [7]
  MBC: 0.37 µM/mL
  MIC: 0.09 µM/mL
P. intermedia ATCC 25611; P. intermedia ATCC 25611
  MBC: 0.49 mg/L
  MIC: 0.49 mg/L
P. intermedia ATCC 25611; [8]
  MBC: 0.003 µM/mL
  MIC: 0.003 µM/mL
V. parvula ATCC 10790; V. parvula ATCC 10790
  MBC: 15.6 mg/L
  MIC: 7.8 mg/L
V. parvula ATCC 10790; [9]
  MBC: 0.09 µM/mL
  MIC: 0.049 µM/mL
[2]; 1.25 µmol applied on paper
  time of exposure after which darkening began: 10 min
[2]; [10]
  time of exposure after which darkening began: 30 min
[2]
  time to complete darkening: 24 h

## O=S(=O)([O-])[O-].[Ag+].[Ag+] [Ag2SO4, silver sulfate]
HepG2 cells
  IC50: > 10 µM
[1]; S. epidermidis ATCC 12228
  MBC: 31.3 mg/L
  MIC: 15.6 mg/L
[1]; [3]
  MBC: 0.1 µM/mL
  MIC: 0.05 µM/mL
M. luteus ATCC 10240; M. luteus ATCC 10240
  MBC: 125 mg/L
  MIC: 15.6 mg/L
M. luteus ATCC 10240; [4]
  MBC: 0.4 µM/mL
  MIC: 0.05 µM/mL
A. israeli ATCC 10049; A. israeli ATCC 10049
  MBC: 15.6 mg/L
  MIC: 0.98 mg/L
A. israeli ATCC 10049; [5]
  MBC: 0.05 µM/mL
  MIC: 0.003 µM/mL
C. jejunii ATCC 33291; C. jejunii ATCC 33291
  MBC: > 1000 mg/L
  MIC: 1000 mg/L
C. jejunii ATCC 33291; [6]
  MBC: > 3.2 µM/mL
  MIC: 3.2 µM/mL
B. fragilis ATCC 10240; B. fragilis ATCC 10240
  MBC: 1000 mg/L
  MIC: 250 mg/L
B. fragilis ATCC 10240; [7]
  MBC: 3.2 µM/mL
  MIC: 0.8 µM/mL
P. intermedia ATCC 25611; P. intermedia ATCC 25611
  MBC: 7.8 mg/L
  MIC: 7.8 mg/L
P. intermedia ATCC 25611; [8]
  MBC: 0.025 µM/mL
  MIC: 0.025 µM/mL
V. parvula ATCC 10790; V. parvula ATCC 10790
  MBC: 62.5 mg/L
  MIC: 62.5 mg/L
V. parvula ATCC 10790; [9]
  MBC: 0.2 µM/mL
  MIC: 0.2 µM/mL
[2]; 1.25 µmol applied on paper
  time of exposure after which darkening began: 10 min
[2]; [10]
  time of exposure after which darkening began: 30 min
[2]
  time to complete darkening: 24 h

From paper PMC8869984, “Multifunctional Silver(I) Complexes with Metronidazole Drug Reveal Antimicrobial Properties and Antitumor Activity against Human Hepatoma and Colorectal Adenocarcinoma Cells” (Cancers, 2022)
